In US9302999B2, “Substituted triazoles as herbicides” (E. I. DU PONT DE NEMOURS AND COMPANY, priority 2012, dated 2016):
Like-named read-outs stand apart in the source and are kept apart here.

Assays:
Assay type in all cases: in vivo
[1] = tested on: barnyardgrass (Echinochloa crus-galli); test: Test A pre-/postemergence: barnyardgrass; conditions: for pest or weed control at 125 g/ha / pest or weed control at 500 g/ha: Echinochloa crus-galli, 240 h
In short: (§1)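 Plants in loam–sand blend were treated with test chemicals in non-phytotoxic solvent with surfactant, either as preemergence directed soil spray or postemergence at 2–10 cm, one- to two-leaf stage. After about ten days in greenhouse, injury was rated visually against untreated controls on a 0–100 scale (100 = complete control).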

[2] = tested on: morningglory (Ipomoea spp.); test: Test A pre-/postemergence: morningglory; conditions: for pest or weed control at 125 g/ha / pest or weed control at 500 g/ha: Ipomoea, 240 h
In short: as §1

[3] = tested on: velvetleaf (Abutilon theophrasti); test: Test A pre-/postemergence: velvetleaf; conditions: for pest or weed control at 125 g/ha / pest or weed control at 500 g/ha: Abutilon theophrasti, 240 h
In short: as §1

[4] = tested on: ducksalad (Heteranthera limosa); test: Test B flooded paddy: ducksalad; conditions: Flood; 250 g ai/ha; applied to paddy water at 2-leaf stage; visually evaluated after 13 to 15 days
In short: (§2)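 Greenhouse assay lasting 13 to 15 days. Treatment was into water flooding pots 3 cm deep, at the 2-leaf stage, with that level sustained afterwards. Scores compare treated with control plants visually, 100 denoting complete control and 0 no effect; a dash marks no test result.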

[5] = tested on: barnyardgrass (Echinochloa crus-galli); test: Test B flooded paddy: barnyardgrass; conditions: Flood; 250 g ai/ha; applied to paddy water at 2-leaf stage; visually evaluated after 13 to 15 days
In short: as §2

corn (Zea mays) = test: Test C pre-/postemergence: corn
In short: (§3)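 Visual injury scored 0–100 (100 = complete control) against untreated controls after 13–15 greenhouse days. Surfactant-containing solvent formulations applied either to soil after sowing (loam/sand) or over 1- to 4-leaf plants, 2–18 cm tall.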

[6] = tested on: large crabgrass (Digitaria sanguinalis); test: Test C pre-/postemergence: large crabgrass
In short: as §3

[7] = tested on: foxtail, giant (giant foxtail, Setaria faberii); test: Test C pre-/postemergence: foxtail, giant
In short: as §3

kochia (Kochia scoparia) = test: Test C pre-/postemergence: kochia
In short: as §3

soybean (Glycine max) = test: Test C pre-/postemergence: soybean
In short: as §3

[8] = tested on: chickweed (common chickweed, Stellaria media); test: Test C postemergence: chickweed
In short: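 Response values are visual ratings, 0 (no effect) to 100 (complete control), made by comparison with untreated controls 13 to 15 days after postemergence treatment of greenhouse-grown potted plants that were 2 to 18 cm high at spraying.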

[9] = Postemergence, 125 g ai/ha, 0 to 100 scale, 0 is no effect, 100 is complete control
[10] = Postemergence, 500 g ai/ha, visual rating on 0 to 100 scale (0 no effect, 100 complete control), approximately ten days
[11] = Preemergence, 125 g ai/ha, 0 to 100 scale (0 no effect, 100 complete control)
[12] = Preemergence, 500 g ai/ha, 0 to 100 scale, 0 is no effect, 100 is complete control
[13] = Postemergence, 31 g ai/ha, scale 0 to 100 (0 no effect, 100 complete control)
[14] = Postemergence, 62 g ai/ha, scale 0 to 100 (0 no effect, 100 complete control)
[15] = Postemergence, 125 g ai/ha, scale 0 to 100, 0 no effect, 100 complete control
[16] = Postemergence, 250 g ai/ha, scale 0 to 100
[17] = 31 g ai/ha, scale 0 to 100 (0 no effect, 100 complete control)
[18] = 62 g ai/ha, scale 0 to 100 (0 no effect, 100 complete control)
[19] = 125 g ai/ha, scale 0 to 100, 0 no effect, 100 complete control
[20] = Preemergence, 31 g ai/ha, scale 0 (no effect) to 100 (complete control)
[21] = Preemergence, 62 g ai/ha, scale 0 to 100, 0 no effect, 100 complete control
[22] = Preemergence, 125 g ai/ha, scale 0 to 100, 0 no effect, 100 complete control
[23] = Preemergence, 250 g ai/ha, scale 0 to 100, 0 no effect, 100 complete control
[24] = Postemergence, 250 g ai/ha, scale 0 to 100 (0 no effect, 100 complete control)

FC(F)(F)c1ccc(-n2nc(Cl)c(Cc3ccnc(C(F)(F)F)c3)n2)cc1 [Compound 28]
Barnyardgrass plant response rating [1, 9]: 70
Barnyardgrass plant response rating [1, 10]: 90
Plant response rating, Barnyardgrass [1, 11]: 50
Plant response rating, Barnyardgrass [1, 12]: 90
Morningglory plant response rating [2, 9]: 100
Morningglory plant response rating [2, 10]: 100
Plant response rating, Morningglory [2, 11]: 20
Velvetleaf plant response rating [3, 9]: 80
Velvetleaf plant response rating [3, 10]: 100
Plant response rating, Velvetleaf [3, 11]: 20
Plant response rating, Velvetleaf [3, 12]: 80
Plant response rating, Ducksalad (0 to 100 scale, 0 is no effect, 100 is complete control) [4]: 95
Plant response rating, Barnyardgrass (0 to 100 scale, 0 is no effect, 100 is complete control) [5]: 90
Plant response rating, Corn (corn (Zea mays); [13]): 15
Plant response rating, Corn (corn (Zea mays); [14]): 20
Plant response rating, Corn (corn (Zea mays); [15]): 25
Plant response rating, Corn (corn (Zea mays); [16]): 25
Plant response rating, Crabgrass, Large [6, 13]: 10
Plant response rating, Crabgrass, Large [6, 14]: 15
Plant response rating, Crabgrass, Large [6, 15]: 20
Plant response rating, Crabgrass, Large [6, 16]: 25
Plant response rating, Foxtail, Giant [7, 13]: 35
Plant response rating, Foxtail, Giant [7, 14]: 35
Plant response rating, Foxtail, Giant [7, 15]: 35
Plant response rating, Foxtail, Giant [7, 16]: 50
Plant response rating, Kochia (kochia (Kochia scoparia); [13]): 40
Plant response rating, Kochia (kochia (Kochia scoparia); [14]): 65
Plant response rating, Kochia (kochia (Kochia scoparia); [15]): 75
Plant response rating, Kochia (kochia (Kochia scoparia); [16]): 95
Plant response rating, Soybean (soybean (Glycine max); [13]): 30
Plant response rating, Soybean (soybean (Glycine max); [14]): 35
Plant response rating, Soybean (soybean (Glycine max); [15]): 35
Plant response rating, Soybean (soybean (Glycine max); [16]): 60
Plant response rating, Chickweed [8, 17]: 30
Plant response rating, Chickweed [8, 18]: 55
Plant response rating, Chickweed [8, 19]: 95
Plant response rating, Chickweed ([8]; 250 g ai/ha, scale 0 to 100): 100

CCOc1nn(-c2ccc(F)cc2)nc1Cc1ccnc(C(F)(F)F)c1 [Compound 196, 4-[[5-ethoxy-2-(4-fluorophenyl)-2H-1,2,3-triazol-4-yl]methyl]-2-(trifluoromethyl)pyridine]
pest or weed control at 125 g/ha ([1]; post-emergence, Postemergence, 125 g ai/ha, 0 to 100 scale, 0 is no effect, 100 is complete control, read-out: Plant response rating, Barnyardgrass): 80%
pest or weed control at 500 g/ha ([1]; post-emergence, Postemergence, 500 g ai/ha, 0 to 100 scale, 0 is no effect, 100 is complete control, read-out: Barnyardgrass plant response rating): 90%
pest or weed control at 125 g/ha ([1]; pre-emergence, Preemergence, 125 g ai/ha, 0 to 100 scale where 0 is no effect and 100 is complete control, read-out: Plant response rating, Barnyardgrass): 100%
pest or weed control at 500 g/ha ([1]; pre-emergence, Preemergence, 500 g ai/ha, 0 to 100 scale (0 no effect, 100 complete control), read-out: Plant response rating, Barnyardgrass): 100%
pest or weed control at 125 g/ha ([2]; post-emergence, Postemergence, 125 g ai/ha, 0 to 100 scale, 0 is no effect, 100 is complete control, read-out: Plant response rating, Morningglory): 100%
pest or weed control at 500 g/ha ([2]; post-emergence, Postemergence, 500 g ai/ha, 0 to 100 scale, 0 is no effect, 100 is complete control, read-out: Morningglory plant response rating): 100%
pest or weed control at 125 g/ha ([2]; pre-emergence, Preemergence, 125 g ai/ha, 0 to 100 scale where 0 is no effect and 100 is complete control, read-out: Plant response rating, Morningglory): 60%
pest or weed control at 500 g/ha ([2]; pre-emergence, Preemergence, 500 g ai/ha, 0 to 100 scale (0 no effect, 100 complete control), read-out: Plant response rating, Morningglory): 90%
pest or weed control at 125 g/ha ([3]; post-emergence, Postemergence, 125 g ai/ha, 0 to 100 scale, 0 is no effect, 100 is complete control, read-out: Plant response rating, Velvetleaf): 100%
pest or weed control at 500 g/ha ([3]; post-emergence, Postemergence, 500 g ai/ha, 0 to 100 scale, 0 is no effect, 100 is complete control, read-out: Velvetleaf plant response rating): 100%
pest or weed control at 125 g/ha ([3]; pre-emergence, Preemergence, 125 g ai/ha, 0 to 100 scale where 0 is no effect and 100 is complete control, read-out: Plant response rating, Velvetleaf): 80%
pest or weed control at 500 g/ha ([3]; pre-emergence, Preemergence, 500 g ai/ha, 0 to 100 scale (0 no effect, 100 complete control), read-out: Plant response rating, Velvetleaf): 100%
Plant response rating, Ducksalad (0 to 100 scale, 0 is no effect, 100 is complete control) [4]: 100
Plant response rating, Barnyardgrass (0 to 100 scale, 0 is no effect, 100 is complete control) [5]: 85
Plant response rating, Corn (corn (Zea mays); [13]): 60
Plant response rating, Corn (corn (Zea mays); [14]): 60
Plant response rating, Corn (corn (Zea mays); [15]): 65
Plant response rating, Corn (corn (Zea mays); [16]): 65
Plant response rating, Corn (corn (Zea mays); [20]): 25
Plant response rating, Corn (corn (Zea mays); [21]): 35
Plant response rating, Corn (corn (Zea mays); [22]): 45
Plant response rating, Corn (corn (Zea mays); [23]): 50
Plant response rating, Crabgrass, Large [6, 13]: 80
Plant response rating, Crabgrass, Large [6, 14]: 85
Plant response rating, Crabgrass, Large [6, 15]: 85
Plant response rating, Crabgrass, Large [6, 16]: 95
Plant response rating, Crabgrass, Large [6, 20]: 100
Plant response rating, Crabgrass, Large [6, 21]: 100
Plant response rating, Crabgrass, Large [6, 22]: 100
Plant response rating, Crabgrass, Large [6, 23]: 100
Plant response rating, Foxtail, Giant [7, 13]: 85
Plant response rating, Foxtail, Giant [7, 14]: 85
Plant response rating, Foxtail, Giant [7, 15]: 90
Plant response rating, Foxtail, Giant [7, 16]: 90
Plant response rating, Foxtail, Giant [7, 20]: 100
Plant response rating, Foxtail, Giant [7, 21]: 100
Plant response rating, Foxtail, Giant [7, 22]: 100
Plant response rating, Foxtail, Giant [7, 23]: 100
Plant response rating, Kochia (kochia (Kochia scoparia); [13]): 85
Plant response rating, Kochia (kochia (Kochia scoparia); [14]): 90
Plant response rating, Kochia (kochia (Kochia scoparia); [15]): 90
Plant response rating, Kochia (kochia (Kochia scoparia); [24]): 90
Plant response rating, Kochia (kochia (Kochia scoparia); [20]): 90
Plant response rating, Kochia (kochia (Kochia scoparia); [21]): 98
Plant response rating, Kochia (kochia (Kochia scoparia); [22]): 98
Plant response rating, Kochia (kochia (Kochia scoparia); [23]): 98
Plant response rating, Soybean (soybean (Glycine max); [13]): 45
Plant response rating, Soybean (soybean (Glycine max); [14]): 50
Plant response rating, Soybean (soybean (Glycine max); [15]): 65
Plant response rating, Soybean (soybean (Glycine max); [24]): 70
Plant response rating, Soybean (soybean (Glycine max); [20]): 10
Plant response rating, Soybean (soybean (Glycine max); [21]): 15
Plant response rating, Soybean (soybean (Glycine max); [22]): 30
Plant response rating, Soybean (soybean (Glycine max); [23]): 35
Plant response rating, Chickweed [8, 17]: 98
Plant response rating, Chickweed [8, 18]: 98
Plant response rating, Chickweed [8, 19]: 100
Plant response rating, Chickweed ([8]; 250 g ai/ha, scale 0 to 100): 100
